How the values were obtained:
T cell = test system: T cell; set-up: method as in PMID 25277199, PMID 24134186; conditions: ref [38], [50]; cited from earlier work
recombinant hGal-7 [1] = test: Disruption of hGal-7 homodimers, native gel electrophoresis/Western blot; type: biochemical, human; conditions: for disruption of hGal-7 homodimers by biotinylated peptide: 0.5 μM hGal-7, 20 mM potassium phosphate pH 7.1, 60 min at 4°C, low SDS-PAGE Western blot, representative of two independent experiments
Description: To measure the ability of the peptides to disrupt the formation of hGal-7 dimers, we used mild denaturing native gel electrophoresis, a commonly used approach to visualize monomer-dimer equilibrium (Fig. 1A and Supplementary Fig. S1). […] This specificity at disrupting hGal-7 dimer formation is provided by distinct three-dimensional arrangements between otherwise very similar galectin homologues. Indeed, while all monomeric galectins reveal identical topologies, dimer formation in hGal-7 proceeds through a “back-to-back” topology of the monomers while other galectins, including hGal-1 and hGal-2, adopt a “side-by-side” structural arrangement (Fig. 1B). This structural organization provides additional means to specifically target and disrupt galectin function.
Incubation of the recombinant B. hGal-1 and C. hGal-2 with hGal-7(129–135) was performed in the same potassium phosphate buffer. The effect of hGal-7(129–135) on the monomeric and dimeric forms of hGal-7/hGal-1/hGal-2 was assessed by Western blotting in native conditions with respective antibodies. The hGal-1/hGal-2 films were overexposed. PACAP28–38 was the control peptide used in order to ensure the specificity of hGal-7(129–135). Recombinant hGal-7 (0.5 μM) was also incubated with increasing concentrations of hGal-7(129–135) in 0.1 mM D. lactose or E. LacNac solutions. Results are representative of three independent experiments.
Human Gal-7 cDNA was cloned into pET-22b(+) using NdeI and HindIII restriction enzymes. Human pET-Gal-1 vector was generously donated by Dr. S. Sato (McGill University, QC, Canada). The proteins were produced in E. coli BL21 (DE3) cells at 37°C. Isopropyl β-D-1-thiogalactopyranoside (IPTG) (1 mM) was added to the bacterial culture at OD600nm = 0.6–0.7 and then incubated for 4 h at 37°C to allow protein production. Bacterial pellets were resuspended in lysis buffer (0.7 mg/mL lysozyme, 10 mM Tris pH 8, 100 mM NaCl, 1 mM EDTA, 1 mM DTT and a protease inhibitor cocktail) and then incubated for 1 h at 37°C prior to centrifugation for 30 min at 15,000 × g (4°C). The supernatant was then filtered with 500 mL bottle top filter ([…]) (Corning, New York, NY, USA) and then ran through a lactose-agarose column (Sigma, St. Louis, MO, USA). The protein was eluted in 1 mL fractions with 150 mM lactose solution. Purified fractions were analyzed by SDS-PAGE. The hGal-7 was then concentrated and purified using Centrifugal filter units (Amicon Ultra-15, 10K) (EMD, Millipore, Etobicoke, ON) in 20 mM potassium phosphate at pH 7.1. All subsequent experiments with the recombinant proteins were performed in the same buffer solution unless mentioned otherwise. Brilliant Coomassie blue was purchased from BioRad (Bio-Rad Laboratories, Mississauga, ON, Canada). The recombinant protein hGal-2 was purchased from MyBiosource (San Diego, CA, USA). […]
gaI-7 (0.5 μM) was incubated with increasing concentrations of biotin-labeled hGaI-7129–135 in 20 mM potassium phosphate buffer (pH 7.1) for 60 min at 4°C beforeWestern blot analysis in low SDS-PAGE using an anti-gaI-7 antibody. B. Similar experiments were carried out using recombinant human B. gaI-1 and C. gaI-2. Results are representative of two independent experiments.
(also on this page, place not known: www.impactjournals.com/oncotarget/ Oncotarget, Materials 2015 Supplementary hGaI-7 129–135.)

hGal-2 = test: Binding to hGal-2; set-up: species or system human; conditions: biotinylated peptide; Supplementary Fig. S2 quoted
recombinant hGal-1 = conditions: hGal-1 10 μg/ml coated; unlabeled peptide (1 mM) 60 min, then biotin-labeled peptide 120 min, room temperature; Streptavidin R-phycoerythrin fluorescence; three independent experiments
recombinant hGal-7 [2] = test: Solid phase fluorescent binding assay on hGal-7; set-up: species or system human; conditions: hGal-7 10 μg/ml coated, unlabeled peptide (1 mM) 60 min, then biotin-labeled peptide 120 min, room temperature, Streptavidin R-phycoerythrin fluorescence, three independent experiments
Description: Results are representative of three independent experiments. Error bars represent standard deviation.

Substance: Gal-7: human galectin-7
- effects on T cell functions and survival (T cell): strong cytotoxic and inhibitory effects on T cell functions and survival

Substance: H-IRPGTVLRIRGLV-NH2 [hGal-7(13–25), peptide corresponding to hGal-7 segment between residues 13–25]
- disruption of hGal-7 homodimers (in words) (recombinant hGal-7 [1]; 0.5 μM recombinant hGal-7, 20 mM potassium phosphate pH 7.1, 1 h at 4°C, native PAGE, Western blot): less potent than hGal-7(129–135) to disrupt hGal-7 homodimers

Substance: biotinylated hGal-7(129–135): biotinylated version of hGal-7(129–135), Biotin-NHS coupled via Ahx linker
- binding to hGal-2 (hGal-2): not hGal-1 or hGal-2
- binding to immobilized hGal-1 (recombinant hGal-1): not hGal-1 or hGal-2
- binding to immobilized hGal-7 (recombinant hGal-7 [2]): could bind hGal-7
- binding to immobilized hGal-7 (recombinant hGal-7 [2]; listed as biotin-labeled hGal-7(129–135)): dose-dependent interaction
- disruption of hGal-7 homodimers by biotinylated peptide (recombinant hGal-7 [1]): still capable of specifically inhibiting the formation of hGal-7 homodimers
- disruption of hGal-7 homodimers by biotinylated peptide (recombinant hGal-7 [1]; listed as biotin-labeled hGaI-7129–135): Disruption of hGaI-7 dimer

Source: paper PMC4747383, “Design of a peptidic inhibitor that targets the dimer interface of a prototypic galectin” (Oncotarget, 2015)
